In US10954216B2, “BMP-signal-inhibiting compound” (RIKEN, priority 2016, dated 2021):
Where two headings read alike, the source gives them in different places.

Legend:
[1] = target: human ALK3 (Homo sapiens (Human), UniProt P36894); experiment: ALK3 enzyme inhibitory effect (33P-ATP kinase assay, Reaction Biology); assay type: biochemical; conditions: for inhibition at 0.3 µM: read-out: Inhibition rate at 300 nM; for inhibition at 0.37 µM: ALK3, test compound 370 nM (asterisk footnote), read-out: inhibition rate at 370 nM
Description: (§1) ALK Enzyme Inhibitory Effect
(§2) Evaluation conditions were described in the following web pages. http://www.reactionbiology.corrilwebapps/site/Kinase_Assay_Protocol.aspx http://www.reactionbiology.corrilwebapps/site/KinaseDetail.aspx?page=Kinases&id=1

[2] = target: human ALK2 (Homo sapiens (Human), UniProt Q04771); experiment: ALK2 enzyme inhibitory effect (33P-ATP kinase assay, Reaction Biology); assay type: biochemical; conditions: ALK2, 10 μM ATP, 20 μM casein
Description: as §1, §2

[3] = system: BMP signal in MDA-231-D-BREFluc/Rluc cells; experiment: BMP signal inhibitory effect (AlphaScreen SureFire SMAD1 p-Ser463/465, BMP-6 stimulation); assay type: cell-based
Method in brief: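 Read-out was phospho-SMAD1 (Ser463/465) by AlphaScreen SureFire after 30 min BMP-6 stimulation at 37° C. Before stimulation, MDA-231-D-BREFluc/Rluc cells were incubated with test compound at 37° C for 2 h.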

[4] = target: human ALK6 (Homo sapiens (Human), UniProt O00238); experiment: ALK6 enzyme inhibitory effect (33P-ATP kinase assay, Reaction Biology); assay type: biochemical; conditions: for inhibition at 0.3 µM: read-out: Inhibition rate at 300 nM; for inhibition at 0.37 µM: ALK6, test compound 370 nM (asterisk footnote), read-out: inhibition rate at 370 nM
Description: as §1, §2

[5] = BMP-6 stimulated MDA-231-D-BREFluc/Rluc cells, phospho-SMAD1 AlphaScreen, read-out: IC50

Sequence of human ALK6 (O00238 14-502): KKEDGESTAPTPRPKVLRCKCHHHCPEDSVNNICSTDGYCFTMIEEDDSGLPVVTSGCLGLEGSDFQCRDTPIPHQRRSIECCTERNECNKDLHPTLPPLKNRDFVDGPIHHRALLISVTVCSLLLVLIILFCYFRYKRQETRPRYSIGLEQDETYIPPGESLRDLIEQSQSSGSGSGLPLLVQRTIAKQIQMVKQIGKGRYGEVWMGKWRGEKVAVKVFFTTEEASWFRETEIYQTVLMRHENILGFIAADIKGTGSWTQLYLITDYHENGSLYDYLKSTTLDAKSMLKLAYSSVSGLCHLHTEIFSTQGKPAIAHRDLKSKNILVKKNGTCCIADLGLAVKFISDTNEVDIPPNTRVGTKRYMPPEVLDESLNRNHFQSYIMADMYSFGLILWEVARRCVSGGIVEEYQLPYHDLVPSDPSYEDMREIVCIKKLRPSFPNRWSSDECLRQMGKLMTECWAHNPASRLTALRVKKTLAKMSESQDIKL
Sequence of human ALK2 (Q04771 21-509): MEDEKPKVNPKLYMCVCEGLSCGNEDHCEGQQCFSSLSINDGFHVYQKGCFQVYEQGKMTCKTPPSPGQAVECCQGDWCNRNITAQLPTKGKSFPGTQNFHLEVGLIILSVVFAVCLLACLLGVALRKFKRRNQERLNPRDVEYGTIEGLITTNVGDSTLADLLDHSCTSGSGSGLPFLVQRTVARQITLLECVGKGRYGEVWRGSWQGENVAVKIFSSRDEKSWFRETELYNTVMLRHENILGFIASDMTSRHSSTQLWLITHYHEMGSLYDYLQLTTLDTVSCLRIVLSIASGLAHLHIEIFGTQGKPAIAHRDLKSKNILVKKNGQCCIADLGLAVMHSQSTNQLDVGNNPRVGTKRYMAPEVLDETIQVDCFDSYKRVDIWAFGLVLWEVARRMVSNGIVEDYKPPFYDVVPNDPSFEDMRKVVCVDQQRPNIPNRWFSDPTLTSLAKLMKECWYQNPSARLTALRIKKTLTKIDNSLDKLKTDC
Sequence of human ALK3 (P36894 24-532): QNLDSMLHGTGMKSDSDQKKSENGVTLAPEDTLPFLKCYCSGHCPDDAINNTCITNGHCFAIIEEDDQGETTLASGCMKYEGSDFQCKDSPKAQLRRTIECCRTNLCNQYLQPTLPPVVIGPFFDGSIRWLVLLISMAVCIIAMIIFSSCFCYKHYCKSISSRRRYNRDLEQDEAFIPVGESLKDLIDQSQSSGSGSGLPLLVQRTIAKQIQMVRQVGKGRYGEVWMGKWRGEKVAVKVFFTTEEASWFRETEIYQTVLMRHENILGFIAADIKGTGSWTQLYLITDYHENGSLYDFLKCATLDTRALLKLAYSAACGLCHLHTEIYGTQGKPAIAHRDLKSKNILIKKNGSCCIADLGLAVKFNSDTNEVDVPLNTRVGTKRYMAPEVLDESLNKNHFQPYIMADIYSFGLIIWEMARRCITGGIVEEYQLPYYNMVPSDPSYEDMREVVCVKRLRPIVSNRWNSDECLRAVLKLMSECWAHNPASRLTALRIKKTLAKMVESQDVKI

| Compound | inhibition at 0.3 µM ([1]; ALK3, test compound 300 nM) | IC50 [2] | IC50 [3, 5] | inhibition at 0.3 µM ([4]; ALK6, test compound 300 nM) | inhibition at 0.3 µM [1] | IC50 [3] | inhibition at 0.3 µM [4] | inhibition at 0.37 µM [1] | inhibition at 0.37 µM [4] |
| --- | --- | --- | --- | --- | --- | --- | --- | --- | --- |
| CCn1cc(-c2ccnc(Nc3ccc4c(c3)CCN(C)C4)n2)c(-c2cccnc2)n1 [Example 129, N-(4-(1-Ethyl-3-(pyridin-3-yl)-1H-pyrazol-4-yl)pyrimidin-2-yl)-2-methyl-1,2,3,4-tetrahydroisoquinolin-6-amine] | 55.7% | 33 nM | 1.8 nM | 92.2% |  |  |  |  |  |
| CCn1cc(-c2ccnc(Nc3ccc(N4CC5CCC(C4)N5)nc3)n2)c(-c2cccnc2)n1 [Example 144, N-(6-(3,8-Diazabicyclo[3.2.1]octan-3-yl)pyridin-3-yl)-4-(1-ethyl-3-(pyridin-3-yl)-1H-pyrazol-4-yl)pyrimidin-2-amine] |  |  |  |  | 46% | 16.7 nM | 86% |  |  |
| FC(F)Cn1cc(-c2ccnc(Nc3ccc(N4CCNCC4)cc3)n2)c(-c2cccnc2)n1 [Example 149, 4-(1-(2,2-Difluoroethyl)-3-(pyridin-3-yl)-1H-pyrazol-4-yl)-N-(4-(piperazin-1-yl)phenyl)pyrimidin-2-amine] | 63.5% | 62.5 nM | 9.1 nM | 86.5% |  |  |  |  |  |
| c1cncc(-c2nn(C3COC3)cc2-c2ccnc(Nc3ccc(N4CCNCC4)cc3)n2)c1 [Example 137, 4-(1-(Oxetan-3-yl)-3-(pyridin-3-yl)-1H-pyrazol-4-yl)-N-(4-(piperazin-1-yl)phenyl)pyrimidin-2-amine] | 47.9% | 46.2 nM | 35.6 nM | 85.3% |  |  |  |  |  |
| CCn1cc(-c2ccnc(Nc3ccc4c(c3)CNCC4)n2)c(-c2cccnc2)n1 [Example 169, N-(4-(1-ethyl-3-(pyridin-3-yl)-1H-pyrazol-4-yl)pyrimidin-2-yl)-1,2,3,4-tetrahydroisoquinolin-7-amine] | 66.6% | 18 nM | 1.6 nM | 96.5% |  |  |  |  |  |
| CC(C)(C)n1cc(-c2ccnc(Nc3ccc(N4CCNCC4)cc3)n2)c(-c2cccnc2)n1 [Example 135] | 60% | 54 nM | 11.7 nM | 77% |  |  |  |  |  |
| CCn1cc(-c2ccnc(Nc3ccc(-c4cnn(CC(F)F)c4)cc3)n2)c(-c2cccnc2)n1 [Example 29, N-(4-(1-(2,2-Difluoroethyl)-1H-pyrazol-4-yl)phenyl)-4-(1-ethyl-3-(pyridin-3-yl)-1H-pyrazol-4-yl)pyrimidin-2-amine] | 66.1% |  | 29.4 nM | 91.3% |  |  |  |  |  |
| Fc1ccc(Cn2cc(-c3ccnc(Nc4ccc(N5CCNCC5)cc4)n3)c(-c3cccnc3)n2)cc1 [Example 139, 4-(1-(4-Fluorobenzyl)-3-(pyridin-3-yl)-1H-pyrazol-4-yl)-N-(4-(piperazin-1-yl)phenyl)pyrimidin-2-amine] | 54.3% |  | 16.2 nM | 90.6% |  |  |  |  |  |
| CCn1cc(-c2ccnc(Nc3ccc4c(c3)CCN(CCOC)C4)n2)c(-c2cccnc2)n1 [Example 126, N-(4-(1-Ethyl-3-(pyridin-3-yl)-1H-pyrazol-4-yl)pyrimidin-2-yl)-2-(2-methoxyethyl)-1,2,3,4-tetrahydroisoquinolin-6-amine] | 59% | 15 nM | 4 nM | 85% |  |  |  |  |  |
| CCn1cc(-c2ccnc(Nc3ccc(N4CCNCC4)c(F)c3)n2)c(-c2cccnc2)n1 [Example 152, 4-(1-Ethyl-3-(pyridin-3-yl)-1H-pyrazol-4-yl)-N-(3-fluoro-4-(piperazin-1-yl)phenyl)pyrimidin-2-amine] | 53% | 15 nM | 7.2 nM | 82% |  |  |  |  |  |
| CCn1cc(-c2ccnc(Nc3ccc(C4CC5CCC(C4)N5)cc3)n2)c(-c2cccnc2)n1 (centres unmarked) [Example 163, N-(4-(8-Azabicyclo [3.2.1]octan-3-yl)phenyl)-4-(1-ethyl-3-(pyridin-3-yl)-1H-pyrazol-4-yl)pyrimidin-2-amine] |  |  |  |  | 47.6% | 4.9 nM | 96.2% |  |  |
| CCn1cc(-c2ccnc(Nc3ccc(S(=O)(=O)N(C)C4CCN(C(C)C)CC4)cc3)n2)c(-c2cccnc2)n1 [Example 124] |  | 61.5 nM | 16 nM | 87% |  |  |  |  |  |
| CCn1cc(-c2ccnc(Nc3ccc(C4CCNCC4)cc3)n2)c(-c2cccnc2)n1 [Example 162, 4-(1-Ethyl-3-(pyridin-3-yl)-1H-pyrazol-4-yl)-N-(4-(piperidin-4-yl)phenyl)pyrimidin-2-amine] | 49.5% | 25 nM | 4.5 nM | 94.2% |  |  |  |  |  |
| CCn1cc(-c2ccnc(Nc3ccc4c(c3)CN(CCO)CC4)n2)c(-c2cccnc2)n1 [Example 179, 2-(7-((4-(1-ethyl-3-(pyridin-3-yl)-1H-pyrazol-4-yl)pyrimidin-2-yl)amino)-3,4-dihydroisoquinolin-2(1H)-yl)ethan-1-ol] | 62.4% | 31 nM | 5.7 nM | 94.3% |  |  |  |  |  |
| CCn1cc(-c2ccnc(Nc3ccc4c(c3)CCNC4)n2)c(-c2cccnc2)n1 [Example 168, N-(4-(1-ethyl-3-(pyridin-3-yl)-1H-pyrazol-4-yl)pyrimidin-2-yl)-1,2,3,4-tetrahydroisoquinolin-6-amine] | 67.3% | 43 nM | 1.5 nM | 93.9% |  |  |  |  |  |
| CCn1cc(-c2ccnc(Nc3ccc(-c4cnn(C5CCNCC5)c4)cc3)n2)c(-c2cccnc2)n1 [Example 167, 4-(1-Ethyl-3-(pyridin-3-yl)-1H-pyrazol-4-yl)-N-(4-(1-(piperidin-4-yl)-1H-pyrazol-4-yl)phenyl)pyrimidin-2-amine] | 67.5% | 36.1 nM | 12.4 nM | 92.2% |  |  |  |  |  |
| CCn1cc(-c2ccnc(Nc3ccc(N4CCNCC4)cc3)n2)c(-c2cccnc2)n1 [Example 151, 4-(1-Ethyl-3-(pyridin-3-yl)-1H-pyrazol-4-yl)-N-(4-(piperazin-1-yl)phenyl)pyrimidin-2-amine] |  |  | 3.6 nM |  |  |  |  | 56.1% | 93% |
| CCn1cc(-c2ccnc(Nc3ccc(C(N)=O)cc3)n2)c(-c2cccnc2)n1 [Example 23, 4-((4-(1-Ethyl-3-(pyridin-3-yl)-1H-pyrazol-4-yl)pyrimidin-2-yl)amino)benzamide] | 52% |  | 33.8 nM |  |  |  |  |  |  |
| CCn1cc(-c2ccnc(Nc3ccc(N4CCNCC4)cc3)n2)c(-c2cncc(F)c2)n1 [Example 148, 4-(1-Ethyl-3-(5-fluoropyridin-3-yl)-1H-pyrazol-4-yl)-N-(4-(piperazin-1-yl)phenyl)pyrimidin-2-amine] |  | 51 nM | 14.8 nM | 79.4% |  |  |  |  |  |
| CCn1cc(-c2ccnc(Nc3ccc(N4CC5CCC(C4)N5)cc3)n2)c(-c2cccnc2)n1 [Example 143, N-(4-(3,8-Diazabicyclo[3.2.1]octan-3-yl)phenyl)-4-(1-ethyl-3-(pyridin-3-yl)-1H-pyrazol-4-yl)pyrimidin-2-amine] |  |  |  |  | 57% | 9.2 nM | 91% |  |  |
| CN1CCN(c2ccc(Nc3nccc(-c4c[nH]nc4-c4cccnc4)n3)cc2)CC1 [Example 127, N-(4-(4-Methylpiperazin-1-yl)phenyl)-4-(3-(pyridin-3-yl)-1H-pyrazol-4-yl)pyrimidin-2-amine] |  |  | 22.4 nM |  |  |  |  | 55.2% | 82.8% |
| N#Cc1cccc(Cn2cc(-c3ccnc(Nc4ccc(N5CCNCC5)cc4)n3)c(-c3cccnc3)n2)c1 [Example 156, 3-((4-(2-((4-(Piperazin-1-yl)phenyl)amino)pyrimidin-4-yl)-3-(pyridin-3-yl)-1H-pyrazol-1-yl)methyl)benzonitrile] |  | 6.1 nM | 24.3 nM |  |  |  |  |  |  |
| CCn1cc(-c2ccnc(Nc3ccc(N4CCN(C(C)C)CC4)cc3)n2)c(-c2cccnc2)n1 [Example 16, 4-(1-ethyl-3-(pyridin-3-yl)-1H-pyrazol-4-yl)-N-(4-(4-isopropylpiperazin-1-yl)phenyl)pyrimidin-2-amine] |  | 6.6 nM | 12.8 nM |  |  |  |  |  |  |
| CCn1cc(-c2ccnc(Nc3ccc(N4CCN(C)CC4)cc3)n2)c(-c2cccnc2)n1 [Example 46, 4-(1-Ethyl-3-(pyridin-3-yl)-1H-pyrazol-4-yl)-N-(4-(4-methylpiperazin-1-yl)phenyl)pyrimidin-2-amine] |  | 25.5 nM | 18.8 nM |  |  |  |  |  |  |
| CCn1cc(-c2ccnc(Nc3cccc(CN4CCOCC4)c3)n2)c(-c2cccnc2)n1 [Example 41, 4-(1-ethyl-3-(pyridin-3-yl)-1H-pyrazol-4-yl)-N-(3-(morpholinomethyl)phenyl)pyrimidin-2-amine] |  | 68 nM | 11.9 nM | 78% |  |  |  |  |  |
| CCn1cc(-c2ccnc(Nc3ccc(N4CCC(N)(CC)CC4)cc3)n2)c(-c2cccnc2)n1 [Example 177, N-(4-(4-Amino-4-ethylpiperidin-1-yl)phenyl)-4-(1-ethyl-3-(pyridin-3-yl)-1H-pyrazol-4-yl)pyrimidin-2-amine] |  | 3.5 nM | 8.5 nM |  |  |  |  |  |  |
| COCCN1CCN(c2ccc(Nc3nccc(-c4cn(CCOC)nc4-c4cccnc4)n3)cc2)CC1 [Example 37, 4-(1-(2-Methoxyethyl)-3-(pyridin-3-yl)-1H-pyrazol-4-yl)-N-(4-(4-(2-methoxyethyl)-piperazin-1-yl)phenyl)pyrimidin-2-amine] |  | 10.4 nM | 31.3 nM |  |  |  |  |  |  |
